What was measured:
hCRTH2 receptor [1] = molecular target: T1, hCRTH2 receptor (Homo sapiens, UniProt Q9Y5Y4); assay: Intracellular calcium mobilization assay (FLIPR), antagonism of prostaglandin D2; assay type: cell-based
T1 construct: expressed in transfected cells; host or cells: clonal HEK 293 cell line (membranes)
T1 sequence (Q9Y5Y4 1-395): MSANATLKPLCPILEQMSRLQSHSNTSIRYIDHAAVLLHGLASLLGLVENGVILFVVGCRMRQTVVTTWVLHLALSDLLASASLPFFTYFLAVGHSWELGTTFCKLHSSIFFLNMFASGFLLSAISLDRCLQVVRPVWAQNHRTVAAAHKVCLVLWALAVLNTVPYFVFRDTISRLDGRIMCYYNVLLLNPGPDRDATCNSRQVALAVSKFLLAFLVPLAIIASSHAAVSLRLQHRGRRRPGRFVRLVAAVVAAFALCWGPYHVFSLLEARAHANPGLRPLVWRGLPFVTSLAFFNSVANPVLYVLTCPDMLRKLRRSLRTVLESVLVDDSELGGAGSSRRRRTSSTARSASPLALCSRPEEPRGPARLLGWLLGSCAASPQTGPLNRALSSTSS
Source text: A functional assay with cells expressing the human CRTH2 receptor may be used to detect changes in the levels of intracellular calcium concentration following compound treatment. After addition of the compound the cells are challenged with PGD2. […] The relative values of the remaining activity were used to determine IC50 values by curve fitting the data to a single site to a four-parameter logistic sigmoid dose response curve of the equation (A+((B−A)/(1+((C/x)^D)))).
The ability of the compounds to inhibit PGD2 induced change of intracellular calcium levels via CRTH2 activation may be measured by methods known of one skilled in the art or by the method described below in the experimental part.
Intracellular Calcium Mobilization Assay (FLIPR):
Cells are detached from culture dishes using a dissociation buffer (0.02% EDTA in PBS, Gibco) for 1 min, and collected by centrifugation at 200 g at rt for 5 min in assay buffer [equal parts of Hank's BSS (HBSS, Bioconcept) and DMEM (low glucose, without phenol red, Gibco)].
Stock solutions of test compounds are made up at a concentration of 10 mM in DMSO, and serially diluted in assay buffer to concentrations required for inhibition dose response curves. Prostaglandin D2 (Biomol, Plymouth Meeting, Pa.) is used as an agonist.
A FLIPR384 instrument (Molecular Devices) is operated according to the manufacturer's standard instructions, adding 4 μl of test compound dissolved at 10 mM in DMSO and diluted prior to the experiment in assay buffer to obtain the desired final concentration. An assay buffer containing 10 μl of 80 nM prostaglandin D2 (Biomol, Plymouth Meeting, Pa.), supplemented with 0.8% bovine serum albumin (fatty acid content <0.02%, Sigma), is then added to obtain a final concentration of 10 nM and 0.1%, respectively. […] Emission peak values above base level after prostaglandin D2 addition are exported after base line subtraction. Values are normalized to high-level control (no test compound added) after subtraction of base line value (no prostaglandin D2 added). The program XL1fit 3.0 (IDBS) is used to fit the data to a single site dose response curve of the equation (A+((B−A)/(1+((C/x)^D)))) and to calculate the IC50 values.

hCRTH2 receptor [2] = molecular target: T1, hCRTH2 receptor; assay: CRTH2 membranes radioligand binding assay ({3H}-PGD2); antagonist binding to the CRTH2 receptor; conditions: {3H}-PGD2 radioligand binding, membranes of HEK 293 cells expressing recombinant hCRTH2; read-out: hCRTH2 BDG IC50
Experimental: Preparation of CRTH2 Membranes and Radioligand Binding Assay:
Cells are detached from culture plates in 5 ml buffer A per plate (5 mM Tris, 1 mM MgCl2x6H2O, 0.1 mM PMSF, 0.1 mM phenanthroline) using a police rubber and transferred into centrifugation tubes and frozen at −80° C. After thawing, the cells are centrifuged at 500 g for 5 min and then resuspended in buffer A. Cells are then fragmented by homogenization with a Polytron homogenizer for 30 s. The membrane fragments are centrifuged at 3000 g for 40 min and resuspended in membranes in buffer B (50 mM Tris, 25 mM MgCl2, 250 mM saccharose, pH 7.4) and aliquots are stored frozen.
Binding assay is performed in a total volume of 250 μl. […] For unspecific binding, PGD2 is added to the reaction mixture at 1 μM final concentration. This binding assay mix is incubated at rt for 90 min and then filtered through a GF/C filter plate. The filter is washed three times with ice cold binding buffer. Then, 40 μl per well Microscint-40 (Packard) are added and the bound radioactivity is quantified by means of Topcount (Packard).

[3] = HEK-293 cells expressing hCRTH2, agonist prostaglandin D2 10 nM, read-out: hCRTH2 FLIPR IC50

| Compound | IC50 (hCRTH2 receptor [1]; [3]) | IC50 (hCRTH2 receptor [2]) | IC50 (hCRTH2 receptor [1]) |
| --- | --- | --- | --- |
| O=C(O)Cn1c(SCCC(c2ccccc2)c2ccccc2)nc2ccc([N+](=O)[O-])cc21 [[2-(3,3-Diphenyl-propylsulfanyl)-6-nitro-benzoimidazol-1-yl]-acetic acid] | 212 nM | – | – |
| O=C(O)Cn1c(SCC2CCCN(C(=O)c3cccc(Cl)c3)C2)nc2ccccc21 (racemic) | 156 nM | – | – |
| CCCCOC(=O)N(CCCSc1nc2cc([N+](=O)[O-])ccc2n1CC(=O)O)CCc1ccccc1 [{2-[3-(Butoxycarbonyl-phenethyl-amino)-propylsulfanyl]-5-nitro-benzoimidazol-1-yl}-acetic acid] | – | 1 nM | – |
| CCCCNC(=O)c1ccc(OC)c(CSc2nc3cc(F)ccc3n2CC(=O)O)c1 [[2-(5-Butylcarbamoyl-2-methoxy-benzylsulfanyl)-5-fluoro-benzoimidazol-1-yl]-acetic acid] | – | – | 21 nM |
| COC(=O)c1ccc(OC)c(CSc2nc3ccccc3n2CC(=O)O)c1 | 201 nM | – | – |
| CCCC(=O)N1CCCC(CSc2nc3cc(Cl)c(Cl)cc3n2CC(=O)O)C1 (centres unmarked) [[2-(1-Butyryl-piperidin-3-ylmethylsulfanyl)-5,6-dichloro-benzoimidazol-1-yl]-acetic acid] | 148 nM | 4 nM | – |
| CCCCC(=O)N(CCCSc1nc2ccccc2n1CC(=O)O)CC(c1ccccc1)c1ccccc1 [(2-{3-[(2,2-Diphenyl-ethyl)-pentanoyl-amino]-propylsulfanyl}-benzoimidazol-1-yl)-acetic acid] | – | 15 nM | – |
| COc1ccc(C(C)=O)cc1CSc1nc2cc(C=O)ccc2n1CC(=O)O [[2-(5-Acetyl-2-methoxy-benzylsulfanyl)-5-formyl-benzoimidazol-1-yl]-acetic acid] | – | 6 nM | – |
| CCOC(=O)c1ccc(N(CCCSc2nc3ccccc3n2CC(=O)O)C(=O)CC(c2ccccc2)c2ccccc2)cc1 | 128 nM | – | – |
| CC(=O)c1ccc(OCCCO)c(CSc2nc3cc(F)ccc3n2CC(=O)O)c1 [{2-[5-Acetyl-2-(3-hydroxy-propoxy)-benzylsulfanyl]-5-fluoro-benzoimidazol-1-yl}-acetic acid] | – | 2 nM | – |
| COc1ccc(C(C)=O)cc1CSc1nc2ccccc2n1CC(=O)O [[2-(5-Acetyl-2-methoxy-benzylsulfanyl)-benzoimidazol-1-yl]-acetic acid] | – | 9 nM | – |
| CCCCC(=O)N(CCCSc1nc2ccccc2n1CC(=O)O)CCc1ccccc1 [{2-[3-(Pentanoyl-phenethyl-amino)-propylsulfanyl]-benzoimidazol-1-yl}-acetic acid] | – | 12 nM | – |
| CCCCOC(=O)N(CCCSc1nc2ccccc2n1CC(=O)O)CCc1ccccc1 | – | 10 nM | – |
| COc1ccc(C(=O)N2CCc3ccccc32)cc1CSc1nc2cc(F)ccc2n1CC(=O)O [{2-[5-(2,3-Dihydro-indole-1-carbonyl)-2-methoxy-benzylsulfanyl]-5-fluoro-benzoimidazol-1-yl}-acetic acid] | 4 nM | – | – |
| CCCC(=O)N1CCCC(CSc2nc3ccccc3n2CC(=O)O)C1 (racemic) | – | 22 nM | – |
| COC(=O)c1cccc(CSc2nc3cc([N+](=O)[O-])ccc3n2CC(=O)O)c1 [[2-(3-Methoxycarbonyl-benzylsulfanyl)-5-nitro-benzoimidazol-1-yl]-acetic acid] | 15 nM | 15 nM | – |
| CCOC(=O)c1ccc(N(CCCSc2nc3ccccc3n2CC(=O)O)C(=O)C(c2ccccc2)C2CCCCC2)cc1 (racemic) | – | 7 nM | – |
| O=C(O)Cn1c(SCC2CCCN(C(=O)c3ccc(Br)cc3)C2)nc2ccccc21 (racemic) | – | 18 nM | – |
| COc1ccc(C(C)=O)cc1CSc1nc2cc(F)ccc2n1C(C)C(=O)O (racemic) | – | 13 nM | – |
| O=C(O)Cn1c(SCC2CCN(C(=O)c3ccc(Br)cc3)C2)nc2cc(F)ccc21 (racemic) | 88 nM | 23 nM | – |

Source: US8273740B2, “2-sulfanyl-benzoimidazol-1-yi-acetic acid derivatives as CRTH2 antagonists” (Actelion Pharmaceuticals, Ltd., priority 2004, dated 2012)
